In US20220132862A1, “PSEUDOMONAS SP. STRAIN, COMPOSITION COMPRISING THE SAME, AND USES THEREOF” (FUTURECO BIOSCIENCE, S.A., priority 2019, published 2022):

Tested on: B2021
Test: Antibiotic resistance, MIC by broth microdilution (BMD)
Assay type: cell-based, Pseudomonas sp.
Conditions: lowest antibiotic concentration that inhibited 80% of growth; LB, 18 h, 28° C.
Description: Minimum inhibitory concentrations (MICs) for tested antibiotics were determined by the broth microdilution (BMD) method. Four antibiotics were used: Streptomycin Sulfate, Nalidixic Acid, Oxytetracycline and Erythromycine. Briefly. MICs were determined in sterile 96-well plates by two-fold serial dilutions in 100 μL of LB. […] The MIC was defined as the lowest antibiotic concentration that inhibited 80% of growth (based on OD measurements) in comparison to the control. Moreover, cell viability was confirmed by addition of 30 μL of 0.01% resazurin. Any color changes from blue-purple to pink were recorded as positive and the MIC was defined as the lowest antibiotic concentration lacking this color change.

`CC[C@H]1OC(=O)[C@H](C)[C@@H](O[C@H]2C[C@@](C)(OC)[C@@H](O)[C@H](C)O2)[C@H](C)[C@@H](O[C@@H]2O[C@H](C)C[C@H](N(C)C)[C@H]2O)[C@](C)(O)C[C@@H](C)C(=O)[C@H](C)[C@@H](O)[C@]1(C)O` [Erythromycine] and `CCn1cc(C(=O)O)c(=O)c2ccc(C)nc21` [Nalidixic Acid] are the same in “Antibiotic resistance (MIC)” value: 240 µg/mL for the first, 240 µg/mL for the second.

Compared with `CN(C)[C@@H]1C(O)=C(C(N)=O)C(=O)[C@@]2(O)C(O)=C3C(=O)c4c(O)cccc4[C@@](C)(O)[C@H]3[C@H](O)[C@@H]12` [Oxytetracycline], Streptomycine Sulfate is 510-fold higher in “Antibiotic resistance (MIC)” value: 3.13 µg/mL for the first, 1600 µg/mL for the second.
